The source of these data is publication PMC9020084 (iScience, 2022).

SMILES strings stand for the structures.

Type in all cases: biochemical
In experiment [1] the target is T1, SHIP2-Enz (S2-Enz) (Homo sapiens, UniProt O15357).
T1 sequence (O15357 414-872): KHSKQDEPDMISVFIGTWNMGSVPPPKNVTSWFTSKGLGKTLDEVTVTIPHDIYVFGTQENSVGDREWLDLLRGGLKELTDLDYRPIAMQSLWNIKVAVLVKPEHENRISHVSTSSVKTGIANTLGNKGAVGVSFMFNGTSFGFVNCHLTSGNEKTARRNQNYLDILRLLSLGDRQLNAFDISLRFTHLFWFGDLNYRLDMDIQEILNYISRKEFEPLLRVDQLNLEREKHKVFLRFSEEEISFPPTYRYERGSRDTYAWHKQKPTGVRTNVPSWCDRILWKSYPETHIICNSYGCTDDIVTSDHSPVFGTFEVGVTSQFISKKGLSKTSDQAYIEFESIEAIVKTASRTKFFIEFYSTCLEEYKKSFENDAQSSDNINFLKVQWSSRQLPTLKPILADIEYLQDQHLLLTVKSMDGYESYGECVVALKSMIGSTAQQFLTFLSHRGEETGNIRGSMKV
As to the kind of experiment: fluorescence polarization PI. Background: Polarisation of emitted light reports the rotation of a fluorescent probe.

The target in experiment [2] is T2, SHIP1-Enz (S1-Enz) (Homo sapiens, UniProt Q92835).
T2 sequence (Q92835 397-864): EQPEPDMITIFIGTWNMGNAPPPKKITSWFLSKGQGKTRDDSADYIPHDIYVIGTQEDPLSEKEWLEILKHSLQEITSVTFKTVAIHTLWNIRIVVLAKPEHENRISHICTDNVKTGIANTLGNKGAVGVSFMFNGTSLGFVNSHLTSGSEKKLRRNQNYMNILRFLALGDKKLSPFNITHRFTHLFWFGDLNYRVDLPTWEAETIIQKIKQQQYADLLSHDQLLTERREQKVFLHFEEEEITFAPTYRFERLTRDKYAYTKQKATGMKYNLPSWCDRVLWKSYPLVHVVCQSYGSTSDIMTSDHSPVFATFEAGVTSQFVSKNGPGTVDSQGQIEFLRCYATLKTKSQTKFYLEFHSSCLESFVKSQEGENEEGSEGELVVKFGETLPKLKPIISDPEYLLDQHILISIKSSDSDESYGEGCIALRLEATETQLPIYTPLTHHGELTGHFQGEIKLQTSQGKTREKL
The experiment in a line: fluorescence polarization PI.

Experiment [3] concerns the target T3, SHIP1ΔC2 (S1ΔC2) (Homo sapiens, UniProt Q92835).
T3 sequence (Q92835 397-730): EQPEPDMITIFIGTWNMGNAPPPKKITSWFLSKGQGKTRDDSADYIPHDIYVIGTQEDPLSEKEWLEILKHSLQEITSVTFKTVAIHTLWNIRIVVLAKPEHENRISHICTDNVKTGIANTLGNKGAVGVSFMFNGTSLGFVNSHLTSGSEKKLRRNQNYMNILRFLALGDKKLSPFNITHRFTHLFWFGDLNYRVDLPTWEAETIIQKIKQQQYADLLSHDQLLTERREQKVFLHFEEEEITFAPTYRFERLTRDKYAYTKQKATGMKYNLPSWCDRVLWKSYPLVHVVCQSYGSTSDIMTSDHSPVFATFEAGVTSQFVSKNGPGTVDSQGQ
The experiment in a line: malachite green phosphate release. The conditions noted are these: agonist (activation); C2 domain deleted.

For orientation: EC50 means the concentration at which the effect is half-maximal. A low value points to a more potent agent. With `Cc1sc(S(=O)(=O)N2CCSCC2)cc1NC(=O)CNS(=O)(=O)c1ccc(F)cc1` [compound 8, K306], the EC50 in experiment [1] was 1170 nM; in experiment [2], 119 nM. Also, in experiment [3], the “malachite green phosphate release” value is “K306 retained significant agonistic activity for SHIP1ΔC2”.
